# Reference: US20220281848A1, “PYRAZOLE-SUBSTITUTED PYRROLIDINONES AS HERBICIDES” (FMC Corporation, priority 2019, published 2022)
# Test system: plants
# Experiment: Test D pre-emergence, other plants of Tables D1 and D3
# Assay type: in vivo
# Details: pre-emergence, 100=total damage, 0=no damage
# Experimental: A formulation containing 50 g/L of the test chemical was prepared by dissolving the active ingredient in a mixture of organic solvents and emulsifier, details of which are provided in the table. This formulation was then mixed with a small, variable amount of acetone to aid dissolution, before addition of a 0.2% v/v aqueous solution of an adjuvant, as the aqueous diluent, to form an aqueous spray solution which contains a predetermined concentration of the active ingredient.
# This aqueous spray solution was then sprayed onto plants including maize and wheat that had been seed treated with a herbicide safener, after one day's cultivation (for pre-emergence) or after about 12 days' cultivation (for post-emergence). The plants were grown from seeds sown in standard soil, placed in a glasshouse under controlled conditions (at 24/18° C. or 20/16° C., day/night; 16 h light; 65% humidity). After spray application the plants were then grown in a glasshouse under the same conditions and watered twice daily. After 15 d for post-emergence and 20 DAA for pre-emergence the test was evaluated (100=total damage to plant; 0=no damage to plant).
smiles,measurement,setting,value
COc1c(F)cccc1NC(=O)C1C(=O)N(C)CC1c1cc(C(F)(F)F)n(C)n1 (racemic) [Compound 18],"damage to plant, ALOMY","rate 15, 20 DAA",0
same,"damage to plant, AVEFA","rate 15, 20 DAA",0
same,"damage to plant, BEAVA","rate 15, 20 DAA",0
same,"damage to plant, BROTE","rate 15, 20 DAA",0
same,"damage to plant, BRSNN","rate 15, 20 DAA",0
same,"damage to plant, CHEAL","rate 15, 20 DAA",0
same,"damage to plant, GALAP","rate 15, 20 DAA",0
same,"damage to plant, HORVW","rate 15, 20 DAA",0
same,"damage to plant, KCHSC","rate 15, 20 DAA",0
same,"damage to plant, LOLPE","rate 15, 20 DAA",0
same,"damage to plant, POAAN","rate 15, 20 DAA",0
same,"damage to plant, POLCO","rate 15, 20 DAA",0
same,"damage to plant, SINAR","rate 15, 20 DAA",0
same,"damage to plant, STEME","rate 15, 20 DAA",0
same,"damage to plant, VERPE","rate 15, 20 DAA",0
same,"damage to plant, ALOMY","rate 30, 20 DAA",0
same,"damage to plant, AVEFA","rate 30, 20 DAA",0
same,"damage to plant, BEAVA","rate 30, 20 DAA",0
same,"damage to plant, BROTE","rate 30, 20 DAA",0
same,"damage to plant, BRSNN","rate 30, 20 DAA",0
same,"damage to plant, CHEAL","rate 30, 20 DAA",0
same,"damage to plant, GALAP","rate 30, 20 DAA",0
same,"damage to plant, HORVW","rate 30, 20 DAA",0
same,"damage to plant, KCHSC","rate 30, 20 DAA",0
same,"damage to plant, LOLPE","rate 30, 20 DAA",0
same,"damage to plant, POAAN","rate 30, 20 DAA",0
same,"damage to plant, POLCO","rate 30, 20 DAA",0
same,"damage to plant, SINAR","rate 30, 20 DAA",0
same,"damage to plant, STEME","rate 30, 20 DAA",0
same,"damage to plant, VERPE","rate 30, 20 DAA",0
same,"damage to plant, ALOMY","rate 60, 20 DAA",0
same,"damage to plant, AVEFA","rate 60, 20 DAA",0
same,"damage to plant, BEAVA","rate 60, 20 DAA",0
same,"damage to plant, BROTE","rate 60, 20 DAA",0
same,"damage to plant, BRSNN","rate 60, 20 DAA",0
same,"damage to plant, CHEAL","rate 60, 20 DAA",0
same,"damage to plant, GALAP","rate 60, 20 DAA",0
same,"damage to plant, HORVW","rate 60, 20 DAA",0
same,"damage to plant, KCHSC","rate 60, 20 DAA",0
same,"damage to plant, LOLPE","rate 60, 20 DAA",10
same,"damage to plant, POAAN","rate 60, 20 DAA",40
same,"damage to plant, POLCO","rate 60, 20 DAA",0
same,"damage to plant, SINAR","rate 60, 20 DAA",0
same,"damage to plant, STEME","rate 60, 20 DAA",0
same,"damage to plant, VERPE","rate 60, 20 DAA",10
same,"damage to plant, ALOMY","rate 130, 20 DAA",0
same,"damage to plant, AVEFA","rate 130, 20 DAA",0
same,"damage to plant, BEAVA","rate 130, 20 DAA",0
same,"damage to plant, BROTE","rate 130, 20 DAA",10
same,"damage to plant, BRSNN","rate 130, 20 DAA",0
same,"damage to plant, CHEAL","rate 130, 20 DAA",20
same,"damage to plant, GALAP","rate 130, 20 DAA",10
same,"damage to plant, HORVW","rate 130, 20 DAA",0
same,"damage to plant, KCHSC","rate 130, 20 DAA",0
same,"damage to plant, LOLPE","rate 130, 20 DAA",20
same,"damage to plant, POAAN","rate 130, 20 DAA",60
same,"damage to plant, POLCO","rate 130, 20 DAA",0
same,"damage to plant, SINAR","rate 130, 20 DAA",0
same,"damage to plant, STEME","rate 130, 20 DAA",10
same,"damage to plant, VERPE","rate 130, 20 DAA",20
same,"damage to plant, ALOMY","rate 250, 20 DAA",30
same,"damage to plant, AVEFA","rate 250, 20 DAA",30
same,"damage to plant, BEAVA","rate 250, 20 DAA",0
same,"damage to plant, BROTE","rate 250, 20 DAA",30
same,"damage to plant, BRSNN","rate 250, 20 DAA",10
same,"damage to plant, CHEAL","rate 250, 20 DAA",20
same,"damage to plant, GALAP","rate 250, 20 DAA",30
same,"damage to plant, HORVW","rate 250, 20 DAA",0
same,"damage to plant, KCHSC","rate 250, 20 DAA",0
same,"damage to plant, LOLPE","rate 250, 20 DAA",50
same,"damage to plant, POAAN","rate 250, 20 DAA",70
same,"damage to plant, POLCO","rate 250, 20 DAA",0
same,"damage to plant, SINAR","rate 250, 20 DAA",0
same,"damage to plant, STEME","rate 250, 20 DAA",20
same,"damage to plant, VERPE","rate 250, 20 DAA",60
same,"damage to plant, ALOMY","rate 500, 20 DAA",60
same,"damage to plant, AVEFA","rate 500, 20 DAA",40
same,"damage to plant, BEAVA","rate 500, 20 DAA",0
same,"damage to plant, BROTE","rate 500, 20 DAA",40
same,"damage to plant, BRSNN","rate 500, 20 DAA",20
same,"damage to plant, CHEAL","rate 500, 20 DAA",30
same,"damage to plant, GALAP","rate 500, 20 DAA",20
same,"damage to plant, HORVW","rate 500, 20 DAA",40
same,"damage to plant, KCHSC","rate 500, 20 DAA",0
same,"damage to plant, LOLPE","rate 500, 20 DAA",70
same,"damage to plant, POAAN","rate 500, 20 DAA",90
same,"damage to plant, POLCO","rate 500, 20 DAA",0
same,"damage to plant, SINAR","rate 500, 20 DAA",10
same,"damage to plant, STEME","rate 500, 20 DAA",10
same,"damage to plant, VERPE","rate 500, 20 DAA",50
